{"source": "paper PMC12090182", "about": "“Repurposing of the RIPK1-Selective Benzo[1,4]oxazepin-4-one Scaffold for the Development of a Type III LIMK1/2 Inhibitor” (ACS Chemical Biology, 2025)", "assay_in_all_cases": "biochemical", "type_in_all_cases": "binding", "key": {"[1]": {"target": "468 kinases including some pathogenic mutants (Homo sapiens, UniProt Q9NRH2)", "sequence (Q9NRH2 whole entry, change not shown)": "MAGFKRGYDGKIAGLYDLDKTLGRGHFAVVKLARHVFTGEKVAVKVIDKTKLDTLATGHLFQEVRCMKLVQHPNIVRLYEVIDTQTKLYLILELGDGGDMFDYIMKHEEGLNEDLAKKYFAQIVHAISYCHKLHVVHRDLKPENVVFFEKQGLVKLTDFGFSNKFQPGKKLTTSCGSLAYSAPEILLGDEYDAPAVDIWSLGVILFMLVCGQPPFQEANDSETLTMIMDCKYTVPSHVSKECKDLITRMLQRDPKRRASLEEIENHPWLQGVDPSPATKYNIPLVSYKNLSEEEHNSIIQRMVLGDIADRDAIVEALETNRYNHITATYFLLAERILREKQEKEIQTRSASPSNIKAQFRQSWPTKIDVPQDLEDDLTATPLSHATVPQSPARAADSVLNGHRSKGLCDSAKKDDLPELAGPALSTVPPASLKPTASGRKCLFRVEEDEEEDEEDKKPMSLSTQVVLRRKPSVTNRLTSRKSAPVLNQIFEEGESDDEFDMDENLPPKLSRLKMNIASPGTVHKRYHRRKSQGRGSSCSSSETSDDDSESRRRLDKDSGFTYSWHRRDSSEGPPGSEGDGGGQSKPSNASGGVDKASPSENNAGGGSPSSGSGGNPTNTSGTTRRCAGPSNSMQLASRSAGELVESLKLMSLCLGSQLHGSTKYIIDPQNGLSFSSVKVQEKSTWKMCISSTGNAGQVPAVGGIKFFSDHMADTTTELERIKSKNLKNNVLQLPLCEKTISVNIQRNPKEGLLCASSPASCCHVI", "conditions": "SNRK (Entrez SNRK), 1000 nM; read-out: Percent Control"}, "[2]": {"target": "468 kinases including some pathogenic mutants (Homo sapiens, UniProt Q8WXR4)", "conditions": "MYO3B (Entrez MYO3B), 100 nM; read-out: Percent Control"}, "[3]": {"target": "468 kinases including some pathogenic mutants (Homo sapiens, UniProt Q14680)", "sequence (Q14680 whole entry, change not shown)": "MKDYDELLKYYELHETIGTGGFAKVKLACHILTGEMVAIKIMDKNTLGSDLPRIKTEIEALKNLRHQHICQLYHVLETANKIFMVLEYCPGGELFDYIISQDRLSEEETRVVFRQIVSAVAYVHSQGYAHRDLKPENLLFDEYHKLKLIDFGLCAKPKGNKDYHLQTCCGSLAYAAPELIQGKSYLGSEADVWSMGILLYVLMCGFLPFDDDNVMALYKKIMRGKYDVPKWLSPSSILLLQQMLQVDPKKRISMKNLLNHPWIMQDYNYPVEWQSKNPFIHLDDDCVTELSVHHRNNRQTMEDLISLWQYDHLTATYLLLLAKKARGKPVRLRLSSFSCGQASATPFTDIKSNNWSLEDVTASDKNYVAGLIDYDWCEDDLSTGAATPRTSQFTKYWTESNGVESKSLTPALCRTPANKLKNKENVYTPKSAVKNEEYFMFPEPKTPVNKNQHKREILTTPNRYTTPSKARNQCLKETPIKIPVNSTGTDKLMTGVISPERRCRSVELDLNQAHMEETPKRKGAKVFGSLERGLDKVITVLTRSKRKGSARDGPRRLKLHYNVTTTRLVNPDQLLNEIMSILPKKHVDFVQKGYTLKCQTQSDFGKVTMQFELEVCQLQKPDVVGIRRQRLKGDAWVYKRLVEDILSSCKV", "conditions": "MELK (Entrez MELK), 1000 nM; read-out: Percent Control"}, "[4]": {"target": "468 kinases including some pathogenic mutants (Homo sapiens, UniProt Q96L34)", "conditions": "MARK4 (Entrez MARK4), 1000 nM; read-out: Percent Control"}, "[5]": {"target": "468 kinases including some pathogenic mutants (Homo sapiens, UniProt O95835)", "sequence (O95835 whole entry, change not shown)": "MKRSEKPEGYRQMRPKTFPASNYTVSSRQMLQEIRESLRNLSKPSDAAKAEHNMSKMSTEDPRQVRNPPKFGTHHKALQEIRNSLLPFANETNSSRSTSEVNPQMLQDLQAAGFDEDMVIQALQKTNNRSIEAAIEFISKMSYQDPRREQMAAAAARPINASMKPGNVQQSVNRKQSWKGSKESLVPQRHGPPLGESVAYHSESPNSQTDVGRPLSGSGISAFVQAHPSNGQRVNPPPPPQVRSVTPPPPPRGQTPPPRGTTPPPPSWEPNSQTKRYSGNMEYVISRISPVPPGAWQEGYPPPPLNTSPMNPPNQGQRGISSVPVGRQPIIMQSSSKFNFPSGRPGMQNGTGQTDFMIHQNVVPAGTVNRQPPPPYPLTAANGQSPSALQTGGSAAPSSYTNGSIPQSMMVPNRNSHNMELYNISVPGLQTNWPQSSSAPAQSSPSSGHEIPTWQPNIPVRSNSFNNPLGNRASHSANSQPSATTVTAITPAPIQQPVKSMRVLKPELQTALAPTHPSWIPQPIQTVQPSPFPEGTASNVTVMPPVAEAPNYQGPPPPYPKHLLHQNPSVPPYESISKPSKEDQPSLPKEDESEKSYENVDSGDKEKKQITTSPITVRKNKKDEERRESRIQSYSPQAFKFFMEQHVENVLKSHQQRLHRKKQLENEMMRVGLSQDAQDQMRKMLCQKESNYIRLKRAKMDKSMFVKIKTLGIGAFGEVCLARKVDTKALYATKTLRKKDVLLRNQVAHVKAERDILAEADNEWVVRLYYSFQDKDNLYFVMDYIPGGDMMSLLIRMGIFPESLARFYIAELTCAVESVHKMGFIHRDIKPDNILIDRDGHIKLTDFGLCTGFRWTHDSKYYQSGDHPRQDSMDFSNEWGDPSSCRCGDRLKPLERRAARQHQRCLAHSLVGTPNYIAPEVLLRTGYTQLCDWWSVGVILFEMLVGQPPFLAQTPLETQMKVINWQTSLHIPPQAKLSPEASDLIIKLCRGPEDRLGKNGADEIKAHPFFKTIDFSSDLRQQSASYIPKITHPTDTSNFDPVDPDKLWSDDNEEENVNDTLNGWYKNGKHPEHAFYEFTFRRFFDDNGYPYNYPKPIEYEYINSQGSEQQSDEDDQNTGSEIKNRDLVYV", "conditions": "LATS1 (Entrez LATS1), 100 nM; read-out: Percent Control"}, "[6]": {"target": "468 kinases including some pathogenic mutants (Homo sapiens, UniProt P42345)", "conditions": "MTOR (Entrez MTOR), 1000 nM; read-out: Percent Control"}, "[7]": {"target": "468 kinases including some pathogenic mutants (Homo sapiens, UniProt P31152)", "conditions": "ERK4 (Entrez MAPK4), 100 nM; read-out: Percent Control"}, "[8]": {"target": "468 kinases including some pathogenic mutants (Homo sapiens, UniProt Q99640)", "conditions": "PKMYT1 (Entrez PKMYT1), 100 nM; read-out: Percent Control"}, "[9]": {"target": "468 kinases including some pathogenic mutants (Homo sapiens, UniProt P15056)", "conditions": "BRAF (Entrez BRAF), 100 nM; read-out: Percent Control"}, "[10]": {"target": "468 kinases including some pathogenic mutants (Homo sapiens, UniProt Q13464)", "conditions": "ROCK1 (Entrez ROCK1), 100 nM; read-out: Percent Control"}, "[11]": {"target": "468 kinases including some pathogenic mutants (Homo sapiens, UniProt P54762)", "conditions": "EPHB1 (Entrez EPHB1), 100 nM; read-out: Percent Control"}, "[12]": {"target": "468 kinases including some pathogenic mutants (Homo sapiens, UniProt Q96SB4)", "conditions": "SRPK1 (Entrez SRPK1), 100 nM; read-out: Percent Control"}, "[13]": {"target": "468 kinases including some pathogenic mutants (Homo sapiens, UniProt Q14289)", "conditions": "PYK2 (Entrez PTK2B), 100 nM; read-out: Percent Control"}, "[14]": {"target": "468 kinases including some pathogenic mutants (Homo sapiens, UniProt P36888, N841I)", "conditions": "read-out: Percent Control"}, "[15]": {"target": "468 kinases including some pathogenic mutants (Homo sapiens, UniProt Q6PHR2)", "conditions": "ULK3 (Entrez ULK3), 100 nM; read-out: Percent Control"}, "[16]": {"target": "468 kinases including some pathogenic mutants (Homo sapiens, UniProt P10721, D816V)", "conditions": "read-out: Percent Control"}, "[17]": {"target": "468 kinases including some pathogenic mutants (Homo sapiens, UniProt Q9UQ88)", "conditions": "CDC2L2 (Entrez CDC2L2), 100 nM; read-out: Percent Control"}, "[18]": {"target": "468 kinases including some pathogenic mutants (Homo sapiens, UniProt P08581)", "sequence (P08581 25-1390, change not shown)": "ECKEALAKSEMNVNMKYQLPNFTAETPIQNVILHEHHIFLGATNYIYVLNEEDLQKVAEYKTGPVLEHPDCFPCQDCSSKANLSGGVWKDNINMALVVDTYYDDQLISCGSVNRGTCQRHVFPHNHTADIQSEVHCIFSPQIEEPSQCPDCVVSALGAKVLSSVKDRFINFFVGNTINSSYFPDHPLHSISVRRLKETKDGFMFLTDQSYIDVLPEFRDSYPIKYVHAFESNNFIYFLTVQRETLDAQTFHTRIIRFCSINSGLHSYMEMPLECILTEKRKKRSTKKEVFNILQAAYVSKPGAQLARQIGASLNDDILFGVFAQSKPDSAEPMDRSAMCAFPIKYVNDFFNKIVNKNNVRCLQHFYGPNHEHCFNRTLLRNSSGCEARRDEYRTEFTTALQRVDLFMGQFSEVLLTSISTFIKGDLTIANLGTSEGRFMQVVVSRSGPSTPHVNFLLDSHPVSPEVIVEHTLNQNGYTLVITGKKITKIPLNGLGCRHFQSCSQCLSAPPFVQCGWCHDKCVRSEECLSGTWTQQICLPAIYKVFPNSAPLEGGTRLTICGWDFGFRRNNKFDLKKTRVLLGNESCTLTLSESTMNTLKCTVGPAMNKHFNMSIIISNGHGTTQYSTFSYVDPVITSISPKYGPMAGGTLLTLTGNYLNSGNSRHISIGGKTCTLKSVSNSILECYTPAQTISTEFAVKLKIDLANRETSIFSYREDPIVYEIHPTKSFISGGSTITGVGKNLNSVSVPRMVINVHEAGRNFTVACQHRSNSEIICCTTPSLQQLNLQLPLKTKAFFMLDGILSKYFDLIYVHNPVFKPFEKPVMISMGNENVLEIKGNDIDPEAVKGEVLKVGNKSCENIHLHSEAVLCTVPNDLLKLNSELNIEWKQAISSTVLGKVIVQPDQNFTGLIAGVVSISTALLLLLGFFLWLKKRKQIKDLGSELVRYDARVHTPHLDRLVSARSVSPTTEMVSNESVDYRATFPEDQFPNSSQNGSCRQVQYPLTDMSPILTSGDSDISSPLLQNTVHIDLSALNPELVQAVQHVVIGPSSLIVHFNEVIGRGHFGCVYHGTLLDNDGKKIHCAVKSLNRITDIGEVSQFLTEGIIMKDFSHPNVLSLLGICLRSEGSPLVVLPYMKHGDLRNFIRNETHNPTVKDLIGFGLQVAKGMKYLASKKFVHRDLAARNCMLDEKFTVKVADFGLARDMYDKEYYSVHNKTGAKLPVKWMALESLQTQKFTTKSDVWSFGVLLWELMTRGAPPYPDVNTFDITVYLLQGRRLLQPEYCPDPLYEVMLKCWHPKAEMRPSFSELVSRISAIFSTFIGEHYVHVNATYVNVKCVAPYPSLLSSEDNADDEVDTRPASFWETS", "conditions": "MET (Entrez MET), 100 nM; read-out: Percent Control"}, "[19]": {"target": "468 kinases including some pathogenic mutants (Homo sapiens, UniProt Q86UX6)", "conditions": "YANK3 (Entrez STK32C), 100 nM; read-out: Percent Control"}, "[20]": {"target": "468 kinases including some pathogenic mutants (Homo sapiens, UniProt Q8TDC3)", "conditions": "BRSK1 (Entrez BRSK1), 100 nM; read-out: Percent Control"}, "[21]": {"target": "468 kinases including some pathogenic mutants (Homo sapiens, UniProt P08922)", "conditions": "ROS1 (Entrez ROS1), 100 nM; read-out: Percent Control"}, "[22]": {"target": "468 kinases including some pathogenic mutants (Homo sapiens, UniProt P35626)", "conditions": "GRK3 (Entrez ADRBK2), 100 nM; read-out: Percent Control"}, "[23]": {"target": "468 kinases including some pathogenic mutants (Homo sapiens, UniProt Q96RR4)", "conditions": "CAMKK2 (Entrez CAMKK2), 100 nM; read-out: Percent Control"}, "[24]": {"target": "468 kinases including some pathogenic mutants (Homo sapiens, UniProt Q8NE63)", "conditions": "HIPK4 (Entrez HIPK4), 100 nM; read-out: Percent Control"}, "[25]": {"target": "468 kinases including some pathogenic mutants (Homo sapiens, UniProt O75914)", "conditions": "PAK3 (Entrez PAK3), 100 nM; read-out: Percent Control"}, "[26]": {"target": "468 kinases including some pathogenic mutants (Homo sapiens, UniProt Q9H4B4)", "conditions": "PLK3 (Entrez PLK3), 1000 nM; read-out: Percent Control"}, "[27]": {"target": "468 kinases including some pathogenic mutants (Homo sapiens, UniProt P24941)", "conditions": "CDK2 (Entrez CDK2), 100 nM; read-out: Percent Control"}, "[28]": {"target": "468 kinases including some pathogenic mutants (Homo sapiens, UniProt Q9H2K8)", "conditions": "TAOK3 (Entrez TAOK3), 100 nM; read-out: Percent Control"}, "[29]": {"target": "468 kinases including some pathogenic mutants (Homo sapiens, UniProt Q16288)", "sequence (Q16288 32-839, change not shown)": "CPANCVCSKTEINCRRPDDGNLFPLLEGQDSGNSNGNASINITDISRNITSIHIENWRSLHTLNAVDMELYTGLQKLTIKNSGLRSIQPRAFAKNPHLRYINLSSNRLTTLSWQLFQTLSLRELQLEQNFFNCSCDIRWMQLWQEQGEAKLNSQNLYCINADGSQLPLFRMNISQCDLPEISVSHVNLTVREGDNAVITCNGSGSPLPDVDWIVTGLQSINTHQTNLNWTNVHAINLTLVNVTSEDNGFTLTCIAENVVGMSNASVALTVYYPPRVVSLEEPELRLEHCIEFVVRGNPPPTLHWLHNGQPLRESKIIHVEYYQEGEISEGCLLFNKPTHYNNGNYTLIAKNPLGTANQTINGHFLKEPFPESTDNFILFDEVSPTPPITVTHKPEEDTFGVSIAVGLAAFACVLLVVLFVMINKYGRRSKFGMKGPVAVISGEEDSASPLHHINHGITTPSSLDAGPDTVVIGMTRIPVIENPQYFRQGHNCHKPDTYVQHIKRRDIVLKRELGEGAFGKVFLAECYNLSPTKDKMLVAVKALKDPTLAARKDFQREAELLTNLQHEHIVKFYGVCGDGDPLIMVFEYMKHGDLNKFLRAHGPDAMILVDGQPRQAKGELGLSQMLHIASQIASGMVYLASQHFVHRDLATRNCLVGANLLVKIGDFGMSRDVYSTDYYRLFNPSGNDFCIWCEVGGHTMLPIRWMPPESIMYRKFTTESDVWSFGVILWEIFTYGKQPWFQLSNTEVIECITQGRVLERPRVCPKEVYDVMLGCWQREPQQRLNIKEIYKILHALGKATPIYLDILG", "conditions": "TRKC (Entrez NTRK3), 100 nM; read-out: Percent Control"}}, "data": [{"smiles": "CN1C(=O)[C@@H](N2CCc3c(nn(Cc4ccccc4)c3C(N)=O)C2=O)COc2cc(Cl)ccc21", "note": "[Compound 10, (S)-2-benzyl-6-(8-chloro-5-methyl-4-oxo-2,3,4,5-tetrahydrobenzo[b][1,4]oxazepin-3-yl)-7-oxo-4,5,6,7-tetrahydro-2H-pyrazolo[3,4-c]pyridine-3-carboxamide]", "values": [{"measurement": "remaining activity at 1 µM", "setting": "[1]", "value": 100, "unit": "%"}, {"measurement": "remaining activity at 0.1 µM", "setting": "[2]", "value": 97, "unit": "%"}, {"measurement": "remaining activity at 1 µM", "setting": "[3]", "value": 100, "unit": "%"}, {"measurement": "remaining activity at 1 µM", "setting": "[4]", "value": 100, "unit": "%"}, {"measurement": "remaining activity at 0.1 µM", "setting": "[5]", "value": 62, "unit": "%"}, {"measurement": "remaining activity at 1 µM", "setting": "[6]", "value": 100, "unit": "%"}, {"measurement": "remaining activity at 0.1 µM", "setting": "[7]", "value": 86, "unit": "%"}, {"measurement": "remaining activity at 0.1 µM", "setting": "[8]", "value": 90, "unit": "%"}, {"measurement": "remaining activity at 0.1 µM", "setting": "[9]", "value": 58, "unit": "%"}, {"measurement": "remaining activity at 0.1 µM", "setting": "[10]", "value": 76, "unit": "%"}, {"measurement": "remaining activity at 0.1 µM", "setting": "[11]", "value": 95, "unit": "%"}, {"measurement": "remaining activity at 0.1 µM", "setting": "[12]", "value": 100, "unit": "%"}, {"measurement": "remaining activity at 0.1 µM", "setting": "[13]", "value": 88, "unit": "%"}, {"measurement": "remaining activity at 0.1 µM", "setting": "[14]", "value": 72, "unit": "%"}, {"measurement": "remaining activity at 0.1 µM", "setting": "[15]", "value": 100, "unit": "%"}, {"measurement": "remaining activity at 1 µM", "setting": "[16]", "value": 100, "unit": "%"}, {"measurement": "remaining activity at 0.1 µM", "setting": "[17]", "value": 100, "unit": "%"}, {"measurement": "remaining activity at 0.1 µM", "setting": "[18]", "value": 99, "unit": "%"}, {"measurement": "remaining activity at 0.1 µM", "setting": "[19]", "value": 86, "unit": "%"}, {"measurement": "remaining activity at 0.1 µM", "setting": "[20]", "value": 91, "unit": "%"}, {"measurement": "remaining activity at 0.1 µM", "setting": "[21]", "value": 78, "unit": "%"}, {"measurement": "remaining activity at 0.1 µM", "setting": "[22]", "value": 98, "unit": "%"}, {"measurement": "remaining activity at 0.1 µM", "setting": "[23]", "value": 76, "unit": "%"}, {"measurement": "remaining activity at 0.1 µM", "setting": "[24]", "value": 73, "unit": "%"}, {"measurement": "remaining activity at 0.1 µM", "setting": "[25]", "value": 53, "unit": "%"}, {"measurement": "remaining activity at 1 µM", "setting": "[26]", "value": 100, "unit": "%"}, {"measurement": "remaining activity at 0.1 µM", "setting": "[27]", "value": 83, "unit": "%"}, {"measurement": "remaining activity at 0.1 µM", "setting": "[28]", "value": 71, "unit": "%"}, {"measurement": "remaining activity at 0.1 µM", "setting": "[29]", "value": 79, "unit": "%"}]}]}
